Reference: ChEMBL document CHEMBL3259779, “Discovery of pyrazolopyridones as a novel class of noncovalent DprE1 inhibitor with potent anti-mycobacterial activity” (J Med Chem, 2014)
Converted amounts (≈) assume the structure as drawn.

Key:
Type in all cases: functional
[1] = tested on: Mycobacterium tuberculosis; assay: Antimycobacterial activity against streptomycin-resistant Mycobacterium tuberculosis 136570 assessed as growth inhibition after 2 to 3 weeks by turbidometry
[2] = tested on: Mycobacterium tuberculosis; assay: Antimycobacterial activity against isoniazid-resistant Mycobacterium tuberculosis 912253 assessed as growth inhibition after 2 to 3 weeks by turbidometry
[3] = tested on: Mycobacterium tuberculosis; assay: Antimycobacterial activity against rifampin-resistant Mycobacterium tuberculosis 19000 assessed as growth inhibition after 2 to 3 weeks by turbidometry
[4] = tested on: Mycobacterium tuberculosis; assay: Antimycobacterial activity against ethambutol-resistant Mycobacterium tuberculosis 17003 assessed as growth inhibition after 2 to 3 weeks by turbidometry
[5] = tested on: Mycobacterium tuberculosis; assay: Antimycobacterial activity against ofloxacin-resistant Mycobacterium tuberculosis 12119 assessed as growth inhibition after 2 to 3 weeks by turbidometry
[6] = tested on: Mycobacterium tuberculosis; assay: Antimycobacterial activity against Mycobacterium tuberculosis overexpressing DprE1 assessed as growth inhibition by resazurin assay
[7] = tested on: Mycobacterium tuberculosis; assay: Antimycobacterial activity against BTZ043-resistant Mycobacterium tuberculosis harboring DprE1 C-G mutant assessed as growth inhibition by resazurin assay
[8] = tested on: Mycobacterium tuberculosis; assay: Antimycobacterial activity against BTZ043-resistant Mycobacterium tuberculosis harboring DprE1 C-S mutant assessed as growth inhibition by resazurin assay
[9] = tested on: Mycobacterium tuberculosis; assay: Antimycobacterial activity against 3-cyclopropyl-1-phenyl-5-((3-(trifluoromethyl)benzylamino)-methyl)-1H-pyrazolo[3,4-b]pyridin-6(7H)-one-resistant Mycobacterium tuberculosis clone 8.1 assessed as growth inhibition by resazurin assay; conditions: clone 8.1, 7 h
[10] = tested on: Mycobacterium tuberculosis; assay: Antimycobacterial activity against 3-cyclopropyl-1-phenyl-5-((3-(trifluoromethyl)benzylamino)-methyl)-1H-pyrazolo[3,4-b]pyridin-6(7H)-one-resistant Mycobacterium tuberculosis clone 8.2 assessed as growth inhibition by resazurin assay; conditions: clone 8.2, 7 h
[11] = tested on: Mycobacterium tuberculosis; assay: Antimycobacterial activity against 3-cyclopropyl-1-phenyl-5-((3-(trifluoromethyl)benzylamino)-methyl)-1H-pyrazolo[3,4-b]pyridin-6(7H)-one-resistant Mycobacterium tuberculosis clone 8.3 assessed as growth inhibition by resazurin assay; conditions: clone 8.3, 7 h

SMILES	MIC [1]	MIC [2]	MIC [3]	MIC [4]	MIC [5]	MIC [6]	MIC [7]	MIC [8]	MIC [9]	MIC [10]	MIC [11]
Cc1nn(-c2ccccc2)c2[nH]c(=O)c(CNCc3cccc(C(F)(F)F)c3)cc12	3.1 µM (≈ 1.28 µg/mL)	6.2 µM (≈ 2.56 µg/mL)	3.1 µM (≈ 1.28 µg/mL)	3.1 µM (≈ 1.28 µg/mL)	1.6 µM (≈ 0.66 µg/mL)	2.5 µM (≈ 1.03 µg/mL)	0.3 µM (≈ 0.124 µg/mL)	100 µM (≈ 41.2 µg/mL)	> 100 µM	100 µM (≈ 41.2 µg/mL)	0.2 µM (≈ 0.0825 µg/mL)
O=c1[nH]c2c(cc1CNCc1cccc(C(F)(F)F)c1)c(C1CC1)nn2-c1ccccc1	1.6 µM (≈ 0.702 µg/mL)	3.1 µM (≈ 1.36 µg/mL)	1.6 µM (≈ 0.702 µg/mL)	1.6 µM (≈ 0.702 µg/mL)	1.6 µM (≈ 0.702 µg/mL)	0.6 µM (≈ 0.263 µg/mL)	50 µM (≈ 21.9 µg/mL)	>100 µM	50 µM (≈ 21.9 µg/mL)	0.1 µM (≈ 0.0438 µg/mL)	0.2 µM (≈ 0.0877 µg/mL)
O=c1[nH]c2c(cc1CNCc1cccc(C(F)(F)F)n1)c(C1CC1)nn2-c1ccccc1	–	–	–	–	–	50 µM (≈ 22 µg/mL)	100 µM (≈ 43.9 µg/mL)	100 µM (≈ 43.9 µg/mL)	1.2 µM (≈ 0.527 µg/mL)	> 100 µM	0.2 µM (≈ 0.0879 µg/mL)
O=c1[nH]c2c(cc1CNCc1cc(C(F)(F)F)ccc1F)c(C1CC1)nn2-c1ccccc1	–	–	–	–	–	100 µM (≈ 45.6 µg/mL)	25 µM (≈ 11.4 µg/mL)	1.2 µM (≈ 0.548 µg/mL)	100 µM (≈ 45.6 µg/mL)	0.08 µM (≈ 0.0365 µg/mL)	0.2 µM (≈ 0.0913 µg/mL)
O=c1[nH]c2c(cc1CNCc1cccc(C(F)(F)F)c1F)c(C1CC1)nn2-c1ccccc1	–	–	–	–	–	25 µM (≈ 11.4 µg/mL)	1.2 µM (≈ 0.548 µg/mL)	>100 µM	0.6 µM (≈ 0.274 µg/mL)	0.04 µM (≈ 0.0183 µg/mL)	0.2 µM (≈ 0.0913 µg/mL)
Cc1ccc(C(F)(F)F)cc1CNCc1cc2c(C3CC3)nn(-c3ccccc3)c2[nH]c1=O	–	–	–	–	–	1.2 µM (≈ 0.543 µg/mL)	>100 µM	0.3 µM (≈ 0.136 µg/mL)	0.3 µM (≈ 0.136 µg/mL)	> 100 µM	0.2 µM (≈ 0.0905 µg/mL)
C[C@H]1COC2(CCN(c3nc(=O)c4cc(C(F)(F)F)cc([N+](=O)[O-])c4s3)CC2)O1 [BTZ-043]	–	–	–	–	–	> 100 µM	0.6 µM (≈ 0.259 µg/mL)	0.3 µM (≈ 0.129 µg/mL)	> 100 µM	100 µM (≈ 43.1 µg/mL)	12.5 µM (≈ 5.39 µg/mL)
CC[C@@H](CO)NCCN[C@@H](CC)CO [ETHAMBUTOL]	2 µM (≈ 0.409 µg/mL)	2 µM (≈ 0.409 µg/mL)	2 µM (≈ 0.409 µg/mL)	> 20 µM	2 µM (≈ 0.409 µg/mL)	–	–	–	–	–	–
NNC(=O)c1ccncc1 [ISONIAZID]	0.2 µM (≈ 0.0274 µg/mL)	> 29 µM	0.2 µM (≈ 0.0274 µg/mL)	0.2 µM (≈ 0.0274 µg/mL)	0.2 µM (≈ 0.0274 µg/mL)	100 µM (≈ 13.7 µg/mL)	0.3 µM (≈ 0.0411 µg/mL)	0.1 µM (≈ 0.0137 µg/mL)	100 µM (≈ 13.7 µg/mL)	> 100 µM	0.2 µM (≈ 0.0274 µg/mL)
CC1COc2c(N3CCN(C)CC3)c(F)cc3c(=O)c(C(=O)O)cn1c23 (stereo not drawn) [OFLOXACIN]	0.7 µM (≈ 0.253 µg/mL)	0.7 µM (≈ 0.253 µg/mL)	0.7 µM (≈ 0.253 µg/mL)	0.7 µM (≈ 0.253 µg/mL)	> 5 µM	–	–	–	–	–	–
CO[C@H]1/C=C/O[C@@]2(C)Oc3c(C)c(O)c4c(O)c(c(/C=N/N5CCN(C)CC5)c(O)c4c3C2=O)NC(=O)/C(C)=C\C=C\[C@H](C)[C@H](O)[C@@H](C)[C@@H](O)[C@@H](C)[C@H](OC(C)=O)[C@@H]1C [RIFAMPIN]	0.02 µM (≈ 0.0165 µg/mL)	0.02 µM (≈ 0.0165 µg/mL)	> 5 µM	0.02 µM (≈ 0.0165 µg/mL)	0.02 µM (≈ 0.0165 µg/mL)	–	–	–	–	–	–
CN[C@@H]1[C@H](O[C@H]2[C@H](O[C@H]3[C@H](O)[C@@H](O)[C@H](N=C(N)N)[C@@H](O)[C@@H]3N=C(N)N)O[C@@H](C)[C@]2(O)C=O)O[C@@H](CO)[C@H](O)[C@H]1O [STREPTOMYCIN]	> 5 µM	0.3 µM (≈ 0.174 µg/mL)	0.3 µM (≈ 0.174 µg/mL)	0.3 µM (≈ 0.174 µg/mL)	0.3 µM (≈ 0.174 µg/mL)	–	–	–	–	–	–
